# Measured values reported in patent US20090028847A1, “MULTIPLE MYELOMA AND AL AMYLOID IMMUNOTHERAPY TARGETING IMMUNOGLOBULIN LIGHT CHAINS AND USES THEREOF” (TRUSTEES OF BOSTON UNIVERSITY, priority 2007, published 2009).
# B1: heteroclitic lambda 6(2-10) peptide (peptide)
# peptide: YMLTQPHSV
# notes: Variant of the native lambda 6(2-10) peptide with one substitution at position 1 of the 9mer; also called het λ62-10; heteroclitic Ig λ62-10
# How the values were obtained:
# [1] = test system: B cell lymphoblastoma (JY) cells pulsed with peptide; experiment: Chromium-release killing assay with CTL from peptide-immunized HHD mice, peptide-pulsed JY targets; type: ex vivo; conditions: for CTL lysis of peptide-pulsed target cells: T cells of HHD mice immunized with the peptide, not with negative control peptide
# Experimental: (§1) Mice: HHD mice on […] background, transgenic for human MHC Class I (α1 and α2 domains from HLAA*0201, α3 domain from […]) and knockout of H2-D^b (mouse MHC Class I).
# (§2) Immunizations: 200 μg peptide plus 200 μg HBVc “helper” peptide (to elicit CD4+ T cell help), emulsified in […] Freud's Adjuvant (IFA) is used to immunize the HHD mice subcutaneously in the lower abdominal area.
# (§3) Mouse T Cell Culture: Spleens were harvested from the mice and dissociated using sterile frosted glass slides to yield single-cell suspension. Spleenocytes are plated at approximately 1×10^6 cells/ml and 10% FBS supplemented with L-glutamine, non-essential amino acids and β2-mercaptoethanol. Ex vivo cells were stimulated with 10 μg/ml peptide and fed every 2-3 days with medium and 2 ng/ml rIL-2 for 7-10 days.
# Cell Lines: Human cell lines which naturally express the HLAA*0201 allele of MHC Class I are grown in RPMI 1640 and 10% FBS supplemented with L-glutamine. Cell lines include the JY and U66 lymphobastoma cell lines of B cell origin and the T2 cell line of T cell origin.
# (§4) Killing Assay: Target cell lines are loaded with radioactive sodium chromate (^51Cr) and pulsed with 20 μg/ml peptide or as a negative control peptide, flu matrix protein MP-58. Spleen cells are plated with targets at various effector target ratios and incubated at 37° C., 5% CO2 overnight. Supernatants are harvested from each well and assayed for radioactive chromium indicating release from lysed cells. % specific lysis was determined by subtracting the control minimum release from experimental wells and dividing by maximum-minimum release.
# Statistics: Statistical analysis was performed with Statview. Data from killing assays of a minimum of three mice are presented as means ± standard errors (SE). ANOVA was used to determine the statistical significance compared to the negative control peptide.
# [2] = test system: JY cells transfected with full length λ6 gene; experiment: Chromium-release killing assay with CTL from peptide-immunized HHD mice, JY cells transfected with full length λ6 gene; type: in vivo; conditions: FIG. 4
# Experimental: as §1, §2, §3
# (§5) Cell Lines: Human cell lines which naturally express the HLAA*0201 allele of MHC Class I are grown in RPMI 1640 and 10% FBS supplemented with L-glutamine. […]
# as §4, with “Spleen cells are plated with targets at various effector target ratios and incubated at 37° C., 5% CO2 overnight.” left out, “release. […]” for “release.”
# [3] = test system: Ig λ2-expressing U266 multiple myeloma plasma cells; experiment: Chromium-release killing assay with CTL from peptide-immunized HHD mice, U266 targets; type: ex vivo; conditions: FIG. 5
# Experimental: as §1, §2, §3, §5
# as §4, with “Spleen cells are plated with targets at various effector target ratios and incubated at 37° C., 5% CO2 overnight.” left out, “release. […]” for “release.”
# HLA-A2 = HLA-A2 (Homo sapiens, UniProt P04439, D140Y/D185E/D98H/E176V/E277Q/G131W/G231S/I119V/I121R/I166T/I218V/L300P/L318F/N151K/N90K/P208A/P217A/Q86G/Q94H/R138H/R169H/T345S); experiment: Cell-based fluorescence peptide/MHC (HLA-A2) binding and stability assay; conditions: for peptide binding to HLA-A2: FIG. 1, fluorescence shift (FL1) in presence vs absence of peptide
# Description: The native Ig λ62-10 is shown in panel A, and the heteroclitic Ig λ62-10 is show in panel B, with the shift to the right (filled in curve) in the presence of the compared to their absence (unfilled curve) indicating Ig λ62-10 peptide binding to HLA-A2 (FL1).
# The inventors discovered, using Ig light chain sequencing studies with bone marrow aspirates from 264 AL amyloid subjects the relative frequency of light chain subtypes in AL amyloidosis. Selecting the over-represented light chains in AL amyliod subjects, the inventors evaluated the affinity for formation of stable complexes for the HLA-A*0201 (HLA-A2)-binding peptides using three algorithms to predict the stability of peptide-MHC class I complexes. One such subtype (lambda 6; 16% of all AL amyloidosis cases) contains a conserved framework I sequence (lambda 6 (2-10)) predicted to bind stably to HLA-A2. The inventors confirmed this prediction using a standard fluorescence assay. Subsequently, the inventors tested the ability to induce CTL capable of lysing peptide-pulsed or Ig lambda 6-expressing human B cell tumors by immunizing HLA-A2 transgenic, (HHD) mice (Firat et al, 1999) with the lambda 6 (2-10) peptide. The investigators also tested the ability of lambda 6 (2-10) peptide-induced CTL to cross-react with plasma cells expressing a related lambda light chain subtype (lambda 2). Using public web-based algorithms we identified potential immunogenic peptides from a human immunoglobulin light chain (lambda 6) which causes 16-20% of all AL amyloidosis. Culture based assays supported the likelihood that the identified peptide would be immunogenic.
# [4] = molecular target: T1, HLA-A*0201 (HLA-A2) on cells (human); experiment: flow cytometry, HLA-A2 fluorescence (FL1) on cells with and without peptide
# T1 construct: whole, on cells; also called MHC Class I
# [5] = T cells of HHD mice immunized with the peptide
molecule,measurement,setting,value
"SLFPRLYPV (listed as Mus musculus) [mBlimp470-478, native peptide of the murine Blimp-1 protein]",CTL lysis of peptide-pulsed target cells,[1],lysed target cells pulsed with the native murine Blimp470-478 peptide
same,mice that produced a CTL response,"[1]; of 12 mice immunized, FIG. 7",10 mice
"FMLTQPHSV [λ62-10, 9mer from framework 1 of the human lambda 6 immunoglobulin light chain]",CTL lysis of targets transfected with full length λ6 gene,[2]; [5],lysed targets transfected with the gene for the full length λ6 protein
same,mice that produced a CTL response,[2]; of 16 mice immunized,13 mice
same,CTL lysis of U266 target cells,[3]; [5],lysed U266 target cells pulsed with the λ6 peptide as well as U266 cells not pulsed with a peptide
same,mice that produced a CTL response,[3]; of 11 mice immunized,8 mice
same,peptide binding to HLA-A2,HLA-A2,binds to HLA-A2
same,CTL lysis of peptide-pulsed target cells,[1],lysed target cells pulsed with the λ6 peptide
same,mice that produced a CTL response,"[1]; of 24 mice immunized, FIG. 2",17 mice
"YLFPRLYPV (listed as Mus musculus) [heteroclitic mBlimp470-478, heteroclitic variant of mBlimp470-478]",CTL lysis of peptide-pulsed target cells,[1],lysed target cells pulsed with the hc murine Blimp470-478 peptide
same,mice that produced a CTL response,"[1]; of 10 mice immunized, FIG. 8",7 mice
"YMLTQPHSV [het λ62-10, heteroclitic variant of lambda 6(2-10), substitution at position 1]",peptide binding to HLA-A2,HLA-A2; listed as YMLTQPHSV (SEQ ID NO: 2),higher affinity
same,peptide binding to HLA-A2,HLA-A2; listed as heteroclitic Ig λ62-10,binds to HLA-A2
same,stability of peptide/MHC complex,"HLA-A2; FIG. 9, as early as 2 hours and over at least 24 hours",more stable than the native lambda 6 peptide
same,CTL lysis of peptide-pulsed target cells,[1],lysed target cells pulsed with either heteroclitic λ6 peptide or the native λ6 peptide
same,mice that produced a CTL response,"[1]; of 8 mice immunized, FIG. 3",7 mice
FMLTQPHSV (also called λ62-10; Ig λ62-10) [lambda 6(2-10) peptide],binding result,[4],binds
B1,binding result,[4],binds
